“And” between values parts separate entries of the source, which are not always exact repeats. Equal entries are not always repeated. Where two headings read alike, the source gives them in different places.
How the values were obtained:
human α-thrombin = human α-thrombin (Homo sapiens, UniProt P00734); experiment: Protease inhibition, Ki for human α-thrombin (fluorogenic substrate Z-Gly-Gly-Arg-AMC); assay type: biochemical; conditions: human alpha thrombin; for Slope normalized to DMSO (proteolytic substrate cleavage over time): replicates R1-R3
Outline: (§1)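 Inhibition was measured as AMC fluorescence from 50 μM substrate, monitored for 30 min at 25 °C, relative to a peptide-free control. Human and rat enzymes were present at 2 nM and 3 nM final, respectively, in 50 mM Tris-HCl pH 7.4, 150 mM NaCl, 10 mM MgCl2, 1 mM CaCl2. Ki derives from fitted IC50 via Cheng–Prusoff.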

rat α-thrombin = target: T1, rat α-thrombin (Rattus norvegicus, UniProt P18292); experiment: Protease inhibition, Ki for rat α-thrombin (fluorogenic substrate Z-Gly-Gly-Arg-AMC); assay type: biochemical; conditions: rat alpha thrombin; for Slope normalized to DMSO (proteolytic substrate cleavage over time): replicates R1-R3
T1 construct: rat α-thrombin (Molecular Innovations) were used at final concentrations of 2 nM and 3 nM; purchased Molecular Innovations
Outline: as §1

porcine pepsin = target: T2, porcine pepsin (Sus scrofa, UniProt P00791); experiment: Peptide stability in simulated gastric fluid (SGF); assay type: in vitro ADME
T2 construct: 0.32 g of porcine pepsin (Sigma-Aldrich, P7125) was dissolved under gentle agitation; purchased Sigma-Aldrich P7125
T2 sequence (P00791 60-385): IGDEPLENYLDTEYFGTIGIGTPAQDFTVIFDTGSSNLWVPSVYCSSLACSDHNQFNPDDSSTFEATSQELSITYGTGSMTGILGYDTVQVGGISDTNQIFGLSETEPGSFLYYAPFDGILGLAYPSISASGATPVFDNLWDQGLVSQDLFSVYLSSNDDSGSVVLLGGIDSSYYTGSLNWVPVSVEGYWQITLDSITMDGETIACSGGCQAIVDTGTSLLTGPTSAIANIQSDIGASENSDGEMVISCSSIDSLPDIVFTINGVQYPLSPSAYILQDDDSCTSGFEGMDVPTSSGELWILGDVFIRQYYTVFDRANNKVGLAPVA
Outline: (§2)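 Peptide from a 1 mM DMSO stock was added to fluid pre-warmed at 37 °C. SGF was pH 1.2 NaCl with porcine pepsin (0.32 g per 100 ml), and SIF was pH 6.8 potassium phosphate with porcine pancreatin (1 g per 100 ml). Supernatant peptide was quantified by LC–MS, with residual expressed as T1/T0.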

[1] = Peptide stability in simulated intestinal fluid (SIF); assay type: in vitro ADME, porcine; conditions: simulated gi fluid; 8 h, 37 °C, pH 6.8; read-out: Proteolytic stability: SIF (8 h) % remaining
Outline: as §2

porcine pancreatin = experiment: as above; assay type: in vitro ADME; conditions: after 8 h vs 0 h (TIC)
Outline: as §2

[2] = Passive artificial membrane permeability (PAMPA)

O=C1C[C@H]2CCCN2C(=O)[C@H](Cc2ccccc2)NC(=O)[C@@H](NC(=O)c2ccc(Cl)s2)CCCSC/C=C/CSCCN1 [compound 36]
Ki (human α-thrombin; average of R1-R3, read-out: Ki Average, human alpha thrombin inhibition): 286 nM
Slope normalized to DMSO (proteolytic substrate cleavage over time) (human α-thrombin; peptide 1.02E-03 uM): 96.6 and 96.1 and 97.6
Slope normalized to DMSO (proteolytic substrate cleavage over time) (human α-thrombin; peptide 1.04E+00 uM): 45.5 and 28.3 and 38.4
Slope normalized to DMSO (proteolytic substrate cleavage over time) (human α-thrombin; peptide 1.27E-04 uM): 99.5 and 101.3 and 100.1
Slope normalized to DMSO (proteolytic substrate cleavage over time) (human α-thrombin; peptide 1.30E-01 uM): 62.0 and 52.8 and 61.8
Slope normalized to DMSO (proteolytic substrate cleavage over time) (human α-thrombin; peptide 1.59E-05 uM): 98.6 and 105.1 and 101.6
Slope normalized to DMSO (proteolytic substrate cleavage over time) (human α-thrombin; peptide 1.63E-02 uM): 86.9 and 79.7 and 80.1
Slope normalized to DMSO (proteolytic substrate cleavage over time) (human α-thrombin; peptide 1.67E+01 uM): 5.9 and 8.4 and 12.3
Slope normalized to DMSO (proteolytic substrate cleavage over time) (human α-thrombin; peptide 2.03E-03 uM): 95.9 and 89.0 and 96.4
Slope normalized to DMSO (proteolytic substrate cleavage over time) (human α-thrombin; peptide 2.08E+00 uM): 22.1 and 26.4 and 30.9
Slope normalized to DMSO (proteolytic substrate cleavage over time) (human α-thrombin; peptide 2.54E-04 uM): 98.5 and 99.2 and 101.9
Slope normalized to DMSO (proteolytic substrate cleavage over time) (human α-thrombin; peptide 2.60E-01 uM): 51.6 and 49.5 and 56.4
Slope normalized to DMSO (proteolytic substrate cleavage over time) (human α-thrombin; peptide 3.18E-05 uM): 101.8 and 100.2 and 98.7
Slope normalized to DMSO (proteolytic substrate cleavage over time) (human α-thrombin; peptide 3.26E-02 uM): 82.4 (2×) and 76.9
Slope normalized to DMSO (proteolytic substrate cleavage over time) (human α-thrombin; peptide 3.33E+01 uM): 6.3 and 6.8 and 11.7
Slope normalized to DMSO (proteolytic substrate cleavage over time) (human α-thrombin; peptide 4.07E-03 uM): 100.1 and 90.9 and 93.8
Slope normalized to DMSO (proteolytic substrate cleavage over time) (human α-thrombin; peptide 4.17E+00 uM): 10.9 and 18.5 and 22.2
Slope normalized to DMSO (proteolytic substrate cleavage over time) (human α-thrombin; peptide 5.09E-04 uM): 105.8 and 102.8 and 98.4
Slope normalized to DMSO (proteolytic substrate cleavage over time) (human α-thrombin; peptide 5.21E-01 uM): 63.9 and 55.1 and 63.1
Slope normalized to DMSO (proteolytic substrate cleavage over time) (human α-thrombin; peptide 6.36E-05 uM): 96.6 and 96.9 and 98.9
Slope normalized to DMSO (proteolytic substrate cleavage over time) (human α-thrombin; peptide 6.51E-02 uM): 69.9 and 61.7 and 72.5
Slope normalized to DMSO (proteolytic substrate cleavage over time) (human α-thrombin; peptide 6.67E+01 uM): 8.8 and 12.5 and 11.5
Slope normalized to DMSO (proteolytic substrate cleavage over time) (human α-thrombin; peptide 7.95E-06 uM): 102.0 and 99.6 and 99.3
Slope normalized to DMSO (proteolytic substrate cleavage over time) (human α-thrombin; peptide 8.14E-03 uM): 95.5 and 84.9 and 92.8
Slope normalized to DMSO (proteolytic substrate cleavage over time) (human α-thrombin; peptide 8.33E+00 uM): 4.1 and 13.8 and 13.6
IC50 (human α-thrombin; single replicates R1-R3, read-out: IC50, human alpha thrombin inhibition): 453 nM and 218 nM and 444 nM
Ki (human α-thrombin; single replicates R1-R3, read-out: Ki, human alpha thrombin inhibition): 349 nM and 168 nM and 342 nM
Ki (rat α-thrombin; average of R1-R3, read-out: Ki Average, rat alpha thrombin inhibition): 27.1 nM
Slope normalized to DMSO (proteolytic substrate cleavage over time) (rat α-thrombin; peptide 1.02E-03 uM): 95.7 and 93.2 and 92.5
Slope normalized to DMSO (proteolytic substrate cleavage over time) (rat α-thrombin; peptide 1.04E+00 uM): 20.0 and 16.8 and 13.2
Slope normalized to DMSO (proteolytic substrate cleavage over time) (rat α-thrombin; peptide 1.27E-04 uM): 100.2 (2×) and 94.0
Slope normalized to DMSO (proteolytic substrate cleavage over time) (rat α-thrombin; peptide 1.30E-01 uM): 40.2 and 33.7 and 29.3
Slope normalized to DMSO (proteolytic substrate cleavage over time) (rat α-thrombin; peptide 1.59E-05 uM): 102.8 and 104.6 and 99.0
Slope normalized to DMSO (proteolytic substrate cleavage over time) (rat α-thrombin; peptide 1.63E-02 uM): 70.9 and 69.0 and 58.5
Slope normalized to DMSO (proteolytic substrate cleavage over time) (rat α-thrombin; peptide 1.67E+01 uM): 6.7 and 7.6 and -3.8
Slope normalized to DMSO (proteolytic substrate cleavage over time) (rat α-thrombin; peptide 2.03E-03 uM): 92.4 and 90.4 and 105.7
Slope normalized to DMSO (proteolytic substrate cleavage over time) (rat α-thrombin; peptide 2.08E+00 uM): 14.7 and 13.1 and 8.2
Slope normalized to DMSO (proteolytic substrate cleavage over time) (rat α-thrombin; peptide 2.54E-04 uM): 98.1 and 97.6 and 92.4
Slope normalized to DMSO (proteolytic substrate cleavage over time) (rat α-thrombin; peptide 2.60E-01 uM): 33.9 and 26.8 and 32.5
Slope normalized to DMSO (proteolytic substrate cleavage over time) (rat α-thrombin; peptide 3.18E-05 uM): 102.6 and 99.4 and 97.6
Slope normalized to DMSO (proteolytic substrate cleavage over time) (rat α-thrombin; peptide 3.26E-02 uM): 65.2 and 58.8 and 53.9
Slope normalized to DMSO (proteolytic substrate cleavage over time) (rat α-thrombin; peptide 3.33E+01 uM): 6.5 and 6.8 and 3.9
Slope normalized to DMSO (proteolytic substrate cleavage over time) (rat α-thrombin; peptide 4.07E-03 uM): 89.6 and 87.8 and 79.0
Slope normalized to DMSO (proteolytic substrate cleavage over time) (rat α-thrombin; peptide 4.17E+00 uM): 10.5 and 9.5 and 2.3
Slope normalized to DMSO (proteolytic substrate cleavage over time) (rat α-thrombin; peptide 5.09E-04 uM): 97.9 and 94.9 and 105.4
Slope normalized to DMSO (proteolytic substrate cleavage over time) (rat α-thrombin; peptide 5.21E-01 uM): 40.1 and 33.7 and 38.8
Slope normalized to DMSO (proteolytic substrate cleavage over time) (rat α-thrombin; peptide 6.36E-05 uM): 100.2 and 99.0 and 96.8
Slope normalized to DMSO (proteolytic substrate cleavage over time) (rat α-thrombin; peptide 6.51E-02 uM): 49.2 and 44.9 and 38.0
Slope normalized to DMSO (proteolytic substrate cleavage over time) (rat α-thrombin; peptide 6.67E+01 uM): 8.1 and 8.3 and 4.7
Slope normalized to DMSO (proteolytic substrate cleavage over time) (rat α-thrombin; peptide 7.95E-06 uM): 104.1 and 101.6 and 100.1
Slope normalized to DMSO (proteolytic substrate cleavage over time) (rat α-thrombin; peptide 8.14E-03 uM): 83.6 and 78.8 and 74.4
Slope normalized to DMSO (proteolytic substrate cleavage over time) (rat α-thrombin; peptide 8.33E+00 uM): 19.0 and 7.9 and 5.9
IC50 (rat α-thrombin; single replicates R1-R3, read-out: IC50, rat alpha thrombin inhibition): 60.7 nM and 43.2 nM and 43 nM
Ki (rat α-thrombin; single replicates R1-R3, read-out: Ki, rat alpha thrombin inhibition): 33.6 nM (2×) and 23.9 nM (2×) and 23.8 nM (2×)
SGF stability, Residual peptide Average (porcine pepsin; after 8 h vs 0 h (TIC), average of R1-R3): 87.04
SGF stability, Residual peptide (porcine pepsin; after 8 h vs 0 h (TIC), single replicates R1-R3): 86.50 and 93.65 and 80.97
remaining at 8 h (porcine pepsin; simulated gi fluid, 8 h, 37 °C, pH 1.2, read-out: Proteolytic stability: SGF (8 h) % remaining): 87 ± 6%
remaining at 8 h [1]: 42 ± 5%
SIF stability, Residual peptide Average (porcine pancreatin; average of R1-R3): 42.16
SIF stability, Residual peptide (porcine pancreatin; single replicates R1-R3): 44.45 and 36.26 and 45.77
PAMPA permeability: % permeability ([2]; 50 μM, 12–18 h, acceptor concentration relative to equilibrium): 26 ± 9%
Papp at 50 μM ([2]; PAMPA, pH 7.4): 2.88 ×10⁻⁶ cm/s
Permeability% Average ([2]; top well sample vs theoretical equilibrium sample (TIC), average of R1-R3): 26.1%
Permeability% ([2]; top well sample vs theoretical equilibrium sample (TIC), single replicates R1-R3): 30.77% and 15.94% and 31.49%
